Test results from US9927423B2, “LRRC8 proteins and protein complexes and methods for identification of channel modulators” (MAX-DELBRUECK-CENTRUM FUER MOLEKULARE MEDIZIN, priority 2014, dated 2018).

Columns and labels:
VRAC [1] = target: T1, VRAC (Homo sapiens, UniProt Q8IWT6); assay: FLIPR YFP-quenching assay: hypotonicity-induced iodide influx into HEK cells expressing YFP(H148Q/I152L); type: cell-based; set-up: Swelling-induced iodide influx into HEK cells, which display typical ICl(swell) currents; endogenous in cells; host or cells: HEK293: a clone inducibly expressing YFP(H148Q/I152L) in A1, and HEK cells in A2; conditions: hypotonic saline with 50 mM iodide, inhibitor included in the iodide-containing solution
T1 sequence (Q8IWT6 1-810): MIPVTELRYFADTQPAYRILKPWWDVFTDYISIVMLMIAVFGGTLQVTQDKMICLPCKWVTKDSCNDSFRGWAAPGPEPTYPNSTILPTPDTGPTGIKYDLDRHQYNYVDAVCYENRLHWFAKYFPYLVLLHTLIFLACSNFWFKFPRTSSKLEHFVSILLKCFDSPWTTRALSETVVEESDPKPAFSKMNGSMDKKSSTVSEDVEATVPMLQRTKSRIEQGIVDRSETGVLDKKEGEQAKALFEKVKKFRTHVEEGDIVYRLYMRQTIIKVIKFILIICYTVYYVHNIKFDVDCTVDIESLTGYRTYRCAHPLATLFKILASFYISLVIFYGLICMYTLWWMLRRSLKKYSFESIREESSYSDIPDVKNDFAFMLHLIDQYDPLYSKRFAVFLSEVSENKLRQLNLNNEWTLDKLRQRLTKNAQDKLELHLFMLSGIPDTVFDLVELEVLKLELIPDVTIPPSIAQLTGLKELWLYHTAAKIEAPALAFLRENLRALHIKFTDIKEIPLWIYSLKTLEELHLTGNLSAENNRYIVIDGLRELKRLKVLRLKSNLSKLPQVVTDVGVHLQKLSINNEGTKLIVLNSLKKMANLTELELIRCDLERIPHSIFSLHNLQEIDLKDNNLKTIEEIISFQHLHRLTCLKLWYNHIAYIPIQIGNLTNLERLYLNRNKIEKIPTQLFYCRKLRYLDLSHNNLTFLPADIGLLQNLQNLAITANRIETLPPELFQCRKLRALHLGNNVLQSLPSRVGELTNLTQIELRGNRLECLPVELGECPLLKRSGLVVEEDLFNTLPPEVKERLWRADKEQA
Text: To identify VRAC we opted for a genome-wide RNA interference screen that could identify non-redundant VRAC components even if the channel were a heteromer. Swelling-induced iodide influx into HEK cells, which display typical ICl(swell) currents (Nilius et al., 2001, Hernandez-Carballo et al.), was used as readout (FIG. 1A). We generated a clonal HEK cell line expressing a yellow fluorescent protein variant YFP(H148Q/I152L) whose fluorescence is efficiently quenched by iodide (Galietta et al.). The assay used the FLIPR™ fluorometric imaging plate reader system which allows parallel pipetting and continuous fluorescence measurements of all wells. The solution covering the cells was exchanged to a hypotonic or isotonic (control) saline containing 50 mM iodide and YFP fluorescence was followed over time (FIG. 1B). Compatible with a background permeation pathway for I^− the fluorescence decayed slowly in I^−-containing isotonic control solution. […]
The YFP-quenching assay was performed 72 h post-transfection. After having exchanged the cell culture medium in all wells of the plate with 10 μl of isotonic solution (in mM: 145 NaCl, 5 KCl, 1 MgCl2, 2 CaCl2, 10 glucose, 10 HEPES pH 7.4, 329 mOsm) in a Tecan Freedom EVO 200 workstation, the plates were transferred into the FLIPR™ (Molecular Devices) High Throughput Cellular Screening Device and fluorescence measurements were initiated. […]

Ras-transformed cells = Ras-transformed cells compared to WT cells; cited from earlier work
VRAC [2] = target: T1, VRAC; set-up: host or cells: human epidermis cancer cells; conditions: human epidermis cancer cells; cited from earlier work

Compound | inhibition of hypotonicity-induced decrease in YFP fluorescence (quenching by iodide) (VRAC [1]) | other results
CC1(C)[C@@H](OC(=O)CCC(=O)O)CC[C@]2(C)[C@H]3C(=O)C=C4[C@@H]5C[C@@](C)(C(=O)O)CC[C@]5(C)CC[C@@]4(C)[C@]3(C)CC[C@@H]12 [carbenoxolone] | partially inhibited | –
O=C(Nc1cc(C(F)(F)F)cc(C(F)(F)F)c1)Nc1ccc(Br)cc1-c1nnn[nH]1 [NS3728] | – | inhibition of cell migration (Ras-transformed cells): inhibit cell migration more strongly in Ras-transformed cells compared to WT cells
CCCCC1(C2CCCC2)Cc2cc(OCCCC(=O)O)c(Cl)c(Cl)c2C1=O (stereo not shown) [DCPIB] | partially inhibited | –
N.N.[Cl][Pt][Cl] [cisplatin] | – | effect on VRAC (VRAC [2]): activate VRAC
